Data on 4 compounds can be found in patent US20260184710A1, “CASITAS B-LINEAGE LYMPHOMA PROTOONCOGENE B (CBL-B) DEGRADING COMPOUNDS AND ASSOCIATED METHODS OF USE” (Arvinas Operations, Inc., priority 2022, published 2026).

The target in test [1] is T1, Cbl-b (Homo sapiens, UniProt Q13191).
T1 construct: Cbl-b-HiBit KI Jurkat Cells were purchased from Promega; host or cells: Cbl-b-HiBiT knock-in Jurkat cells
Briefly: Cbl-b Degradation Method A (FACS, anti-Cbl-b antibody staining). The test is classed as cell-based. The settings on record: Cbl-b-HiBit KI Jurkat Cells, incubated at least 20 hours; for DC50: half maximal degradation, read-out: Cbl-b Degredation Method A IC50; for Dmax: Jurkat, read-out: Cbl-b Degredation Method A Dmax (%). On the procedure:
Cbl-b Degradation Method A
Cbl-b-HiBit KI Jurkat Cells were purchased from Promega, and cell media consisted of RPMI 1640 with 10% FBS and 1% pen/strep. The cells were counted, measured for viability, and 100 μL of the cell solution was into 96 well flat bottom plates at a ratio of 290,000 cells per 100 μL. Compounds were dissolved in DMSO to make a 10 mM stock solution, which was diluted with cell media. 100 μL of the diluted compound mixture was added to the wells. The plate was incubated for at least 20 hours at 37° C. and 5% CO2. After incubation, the plate was shaken at 700-750 RMP for 15-30 minutes to ensure cells were removed from the wells. The wells were transferred to a 96-well v-bottom plate and spun for 2200 RPM for 3 minutes. The supernatant was removed, cells re-suspended in 100 μL of the fixative, and subsequently incubated at room temperature for 15 minutes. Afterwards, 150 μL of DPBS was added to each well, and the cells were centrifuged at 2500 RPM for 3 minutes. The supernatant was removed and the plate was chilled on ice for 2-3 minutes. While still on the ice, 100 μL of Perm III was added to each well, the wells mixed, and subsequently left on the ice for another 15 minutes. Afterwards, the plate was removed from the ice, 150 μL of DBPS was added to each well, and the cells centrifuged at 2700 RPM for 3 minutes. The supernatant was removed, and an additional 200 μL of was DPBS was added to each well, followed by centrifuging at 2700 RPM for 3 minutes, after which the supernatant was removed. The anti-Cbl-b antibody was diluted 1:200 in 1× Perm Wash buffer and 50 μL of the antibody mixture was added to each well and mixed. After addition, the plate was incubated for 35-45 minutes at room temperature. After incubation, 200 μL of DPBS was added to each wells, and the plate centrifuged at 2700 RPM for 3 minutes, followed by the removal of the supernatant. The washing step was repeated by adding 200 μL of DPBS to each wells followed by centrifuge at 2700 RPM for 3 minutes and removal of the supernatant. The a-Rabbit-AF488 antibody was diluted 1:1000 in Perm Wash buffer, 50 μL of the dilution added to each well, and mixed. After mixing, the plate was incubated for 30 minutes at room temperature in the dark. Subsequently, the supernatant was removed, and 200 μL of DBPS added to the cells, which were then centrifuged at 2900 RPM for 4 minutes. The supernatant was removed, and an additional 95 μL of DBPS was added to the wells and mixed. The cells were then transferred to a round bottom polypropylene plate and analyzed using FACS with the parameters below:
The concentration of an exemplary compound that leads to half maximal degradation (DC50) as well as the maximum degradation observed (Dmax, conventionally expressed as a percentage of control) is shown below in Table 2.
In general terms: HiBiT is a short tag that completes a luciferase, so light tracks the accessible tagged protein.

Test [2] has as its target T1, Cbl-b. The test can be described thus: Cbl-b Degradation Method B (Nano-Glo HiBiT lytic detection). The test is classed as cell-based. To be noted: Cbl-b-HiBit KI Jurkat Cells, incubated at least 6-24 hours; for DC50: half maximal degradation, read-out: Cbl-b Degredation Method B IC50. An outline of the steps: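 An 11-point, 3-fold compound dilution was applied for 6-24 hours to Jurkat cells carrying HiBiT-tagged endogenous Cbl-b. Lytic HiBiT luminescence quantified residual protein. Outputs are DC50 and Dmax relative to DMSO control.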

T1 sequence (Q13191 whole entry): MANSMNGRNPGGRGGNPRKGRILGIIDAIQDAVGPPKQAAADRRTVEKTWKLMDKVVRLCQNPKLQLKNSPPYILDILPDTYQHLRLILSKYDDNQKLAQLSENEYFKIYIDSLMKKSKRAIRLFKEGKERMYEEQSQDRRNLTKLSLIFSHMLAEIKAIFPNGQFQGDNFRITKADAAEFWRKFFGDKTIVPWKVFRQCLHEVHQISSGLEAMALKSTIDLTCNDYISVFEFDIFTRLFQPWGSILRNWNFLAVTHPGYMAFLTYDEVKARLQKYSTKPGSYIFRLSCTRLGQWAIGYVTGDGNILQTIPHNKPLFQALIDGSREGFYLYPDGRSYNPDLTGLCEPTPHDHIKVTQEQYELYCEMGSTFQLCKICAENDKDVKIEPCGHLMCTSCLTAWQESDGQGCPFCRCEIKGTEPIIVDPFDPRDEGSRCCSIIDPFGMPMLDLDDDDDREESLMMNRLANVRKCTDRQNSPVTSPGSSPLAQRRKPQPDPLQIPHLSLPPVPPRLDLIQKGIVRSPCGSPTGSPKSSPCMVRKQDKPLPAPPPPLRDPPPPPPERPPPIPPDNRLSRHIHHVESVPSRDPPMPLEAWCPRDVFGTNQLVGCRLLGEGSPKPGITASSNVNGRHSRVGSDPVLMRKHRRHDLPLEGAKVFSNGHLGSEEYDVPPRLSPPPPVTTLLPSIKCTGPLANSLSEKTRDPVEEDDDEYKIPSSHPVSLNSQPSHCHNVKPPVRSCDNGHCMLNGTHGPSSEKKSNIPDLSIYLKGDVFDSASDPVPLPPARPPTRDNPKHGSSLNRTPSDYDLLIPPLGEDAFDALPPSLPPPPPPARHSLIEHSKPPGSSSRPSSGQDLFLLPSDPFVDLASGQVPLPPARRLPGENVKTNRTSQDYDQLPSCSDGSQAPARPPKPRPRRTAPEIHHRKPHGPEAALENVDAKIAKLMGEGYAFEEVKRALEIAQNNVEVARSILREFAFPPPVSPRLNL

Take `CC1c2nc(N3CCC(O[C@H]4CC[C@H](CN5CCN(Cc6cc7c(c(C(F)(F)F)c6)CN(c6cccc(C8(Cc9nncn9C)COC8)c6)C7=O)CC5(C)C)CC4)CC3)ccc2C(=O)N1C1CCC(=O)NC1=O` (mixture of isomers) [Example 236, rac-3-[7-methyl-5-oxo-2-(4-{[(1r,4r)-4-[(2,2-dimethyl-4-{[2-(3-{3-[(4-methyl-4H-1,2,4-triazol-3-yl)methyl]oxetan-3-yl}phenyl)-3-oxo-7-(trifluoromethyl)-2,3-dihydro-1H-isoindol-5-yl]methyl}piperazin-1-yl)methyl]cyclohexyl]oxy}piperidin-1-yl)-5H,6H,7H-pyrrolo[3,4-b]pyridin-6-yl]piperidine-2,6-dione]: the DC50 on Cbl-b [1] and on Cbl-b [2] was < 5 nM in each case. In addition, the greatest degradation seen (Dmax) (usually the largest share of the target that was removed) on Cbl-b [1] (maximum degradation observed) was > 70%; on Cbl-b [2] (maximum degradation observed, read-out: Cbl-b Degredation Method B Dmax (%)) it was > 70%.

As to `CC(c1cc2c(c(C(F)(F)F)c1)CN(c1cccc(C3(Cc4nncn4C)COC3)c1)C2=O)N1CCN(C[C@H]2CC[C@H](OC3CCN(c4ccc5c(c4F)CN(C4CCC(=O)NC4=O)C5=O)CC3)CC2)CC1` (single isomer, unassigned) [Example 9, 3-[4-fluoro-1-oxo-5-(4-{[(1r, 4r)-4-[(4-{1-[2-(3-{3-[(4-methyl-4H-1,2,4-triazol-3-yl)methyl]oxetan-3-yl}phenyl)-3-oxo-7-(trifluoromethyl)-2,3-dihydro-1H-isoindol-5-yl]ethyl}piperazin-1-yl)methyl]cyclohexyl]oxy}piperidin-1-yl)-2,3-dihydro-1H-isoindol-2-yl]piperidine-2,6-dione], the DC50 on Cbl-b [1] and on Cbl-b [2] was < 5 nM each time. Moreover, the “Cbl-b Degredation Method A Dmax (%)” value on Cbl-b [1] (maximum degradation observed) was “B (35 < B < 70)”. Moreover, on Cbl-b [2] (maximum degradation observed), the “Cbl-b Degredation Method B Dmax (%)” value was “B (35 < B < 70)”.

Turning to `C[C@@H]1c2nc(N3CCC(O[C@H]4CC[C@H](CN5CCN(Cc6cc7c(c(C(F)(F)F)c6)CN(c6cccc(C8(Cc9nncn9C)CC(C#N)C8)c6)C7=O)C6(CC6)C5)CC4)CC3)ccc2C(=O)N1C1CCC(=O)NC1=O` (single isomer, unassigned) [Example 304, (1r***,3r***)-3-[(4-methyl-4H-1,2,4-triazol-3-yl)methyl]-3-(3-{1-oxo-6-[(7-{[(1r**,4r**)-4-({1-[(7R*)-6-(2,6-dioxopiperidin-3-yl)-7-methyl-5-oxo-5H,6H,7H-pyrrolo[3,4-b]pyridin-2-yl]piperidin-4-yl}oxy)cyclohexyl]methyl}-4,7-diazaspiro[2.5]octan-4-yl)methyl]-4-(trifluoromethyl)-2,3-dihydro-1H-isoindol-2-yl}phenyl)cyclobutane-1-carbonitrile], the DC50 was 50 to 500 nM at Cbl-b [1] and < 5 nM on Cbl-b [2]. Further, at Cbl-b [1] (maximum degradation observed), the Dmax is 35 to 70%. Besides, at Cbl-b [2] (maximum degradation observed), the “Cbl-b Degredation Method B Dmax (%)” value was “C (C ≤ 35)”.

Regarding `C[C@@H]1c2nc(N3CCC(O[C@H]4CC[C@H](CN5CCN(Cc6cc7c(c(C(F)(F)F)c6)CN(c6cccc(C8(Cc9nncn9C)CC(C#N)C8)c6)C7=O)C(C)(C)C5)CC4)CC3)ccc2C(=O)N1C1CCC(=O)NC1=O` (single isomer, unassigned) [Example 306, (1r***,3r***)-3-(3-{6-[(2,2-dimethyl-4-{[(1r**,4r**)-4-({1-[(7R*)-6-(2,6-dioxopiperidin-3-yl)-7-methyl-5-oxo-5H,6H,7H-pyrrolo[3,4-b]pyridin-2-yl]piperidin-4-yl}oxy)cyclohexyl]methyl}piperazin-1-yl)methyl]-1-oxo-4-(trifluoromethyl)-2,3-dihydro-1H-isoindol-2-yl}phenyl)-3-[(4-methyl-4H-1,2,4-triazol-3-yl)methyl]cyclobutane-1-carbonitrile], the DC50 at Cbl-b [1] was 50 to 500 nM; at Cbl-b [2] it was < 5 nM. At Cbl-b [1] (maximum degradation observed), the Dmax was 35 to 70%. In addition, the “Cbl-b Degredation Method B Dmax (%)” value at Cbl-b [2] (maximum degradation observed) is on record as “C (C ≤ 35)”.
